Solubility and minimum efficacious exposure data for one molecule are collected here from patent US20100069385A1, “LIQUID FORMULATIONS OF PHOSPHOLIPASE ENZYME INHIBITORS” (WYETH, priority 2006, published 2010).

Series [1] is described as follows: Solubility at room temperature in water, acid and basic conditions. Format: physicochemical. As to conditions: free acid, below HPLC detection limit, read-out: intrinsic solubility of the free acid. As for the experimental part: The solubility of 4-(3-{5-chloro-1-(diphenylmethyl)-2-[2-({[2-(trifluoromethyl)benzyl]sulfonyl}amino)ethyl]-1H-indol-3-yl}propyl)benzoic acid was measured at room temperature in water, acid and basic conditions.

The subject of series [2] is rat carrageenan-induced paw edema (CPE). In words: Rat carrageenan-induced paw edema (CPE) study. The format is in vivo. How it is done: Data from a rat carrageenan-induced paw edema (CPE) study indicated the minimum efficacious exposure of 4-(3-{5-chloro-1-(diphenylmethyl)-2-[2-({[2-(trifluoromethyl)benzyl]sulfonyl}amino)ethyl]-1H-indol-3-yl}propyl)benzoic acid was 1360 ng*hr/ml.
For orientation: The carrageenan paw model is a standard test of acute inflammation.

As usually defined, the solubility is how much of the substance goes into solution per volume. For `O=C(O)c1ccc(CCCc2c(CCNS(=O)(=O)Cc3ccccc3C(F)(F)F)n(C(c3ccccc3)c3ccccc3)c3ccc(Cl)cc23)cc1` [4-(3-{5-chloro-1-(diphenylmethyl)-2-[2-({[2-(trifluoromethyl)benzyl]sulfonyl}amino)ethyl]-1H-indol-3-yl}propyl)benzoic acid], the solubility in series [1] is below 0.031 µg/mL. In series [2], this molecule showed a minimum efficacious exposure of 1360 ng·h/mL.
